Results from patent US20210115104A1, “AMYLIN ANALOGUES” (Zealand Pharma A/S, priority 2015, published 2021).
*1 amine or outer side, *2 acyl side, *3 side chain or, on linkers, in order; H or OH if unused. Where a SMILES comes first, the peptide text is derived from it. Bridges are numbered along the chain shown (N, C = ends). [ ]: non-standard residue; d: D form. The star is where a group is joined. C20 diacid = O=C(O)CCCCCCCCCCCCCCCCCCC(=O)*; γGlu = O=C(O)[C@H](CCC(=O)[*:2])N[*:1]; Hyp = O=C(O)[C@@H]1C[C@@H](O)CN1; NMeI = CC[C@H](C)[C@H](NC)C(=O)O; Aad = N[C@@H](CCCC(=O)O)C(=O)O; Sar = CNCC(=O)O

Assays:
[1] = Assessment of physical stability (Thioflavin T fibrillation); format: physicochemical; set-up: key: FND = fibrillation not detected; FD = fibrillation detected; conditions: 1 mg/ml, 40° C., ThT; for Fibrillation pH 4.0 (Ac): 50 mM acetate buffer pH 4.0, 96 hours; for Fibrillation pH 7.0 (His): 50 mM histidine buffer pH 7.0, 96 hours; for Fibrillation pH 7.0 (Phos.): 50 mM phosphate buffer pH 7.0, 96 hours
Method in brief: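 Fibrillation lag-time, in hours, taken where regressions of the initial stable phase and the growth phase intersect. ThT (40 μM) fluorescence monitored at 40 °C for 96 h, 10-min reads each preceded by 300 s mixing. Peptide at 1 mg/ml in 50 mM buffers: phosphate or histidine pH 7.0, acetate pH 4.0.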

Sprague Dawley rats = assay: Oral glucose tolerance test (OGTT) in rats; format: in vivo, rat; conditions: fasted rats, 30 nmol/kg sc 16 hours before oral glucose bolus 2 g/kg
Description: Male Sprague Dawley rats [Crl:CD(SD), weight range 260-280 g upon arrival] were housed in groups of 2 (n=2) or 3 (n=3). The animals were maintained on a 12 h/12 h light/dark cycle. Animals had access ad libitum to a standard chow diet and tap water (domestic quality tap water) during the initial one week acclimatization period.
Fasted rats (fasted for 7 hours) were employed in the test. Rats had previously been randomized into two groups, designated test group and control group, respectively. The total number of animals per group was 10 (n=10).
A single subcutaneous injection of either vehicle (control group; vehicle: 50 mM histidine buffer, pH 7, with 200 mM mannitol) or Compound 7 in vehicle [test group; dose 30 nmol/kg body weight (2 ml/kg)] was subsequently administered to each animal. All rats then received an oral glucose bolus (2 g/kg) 16 hours after vehicle or compound administration. Blood glucose levels in tail blood samples taken 20 min. before glucose administration (time zero, baseline) and then 15 min., 30 min., 60 min., 90 min., 120 min. and 180 min after glucose administration were determined using a glucometer (GlucoSmart Swing™; MSP Bodmann GmbH, Germany).
The data are presented as mean±S.E.M. The two-sided unpaired Student t-test was used for statistical comparison of the test group and the control group.

[2] = molecular target: T1, human amylin receptor 3 (hAMYR3), hCTR2 co-expressed with hRAMP3 (Homo sapiens, UniProt O60896+P30988); assay: hAMYR3 cAMP assay (AlphaScreen) in COS7 cells; format: cell-based; conditions: cAMP induction, COS7 cells expressing hAMYR3; Table 1; read-out: hAMYR3 EC50
T1 construct: expressed in transfected cells
T1 sequence (P30988 25-474): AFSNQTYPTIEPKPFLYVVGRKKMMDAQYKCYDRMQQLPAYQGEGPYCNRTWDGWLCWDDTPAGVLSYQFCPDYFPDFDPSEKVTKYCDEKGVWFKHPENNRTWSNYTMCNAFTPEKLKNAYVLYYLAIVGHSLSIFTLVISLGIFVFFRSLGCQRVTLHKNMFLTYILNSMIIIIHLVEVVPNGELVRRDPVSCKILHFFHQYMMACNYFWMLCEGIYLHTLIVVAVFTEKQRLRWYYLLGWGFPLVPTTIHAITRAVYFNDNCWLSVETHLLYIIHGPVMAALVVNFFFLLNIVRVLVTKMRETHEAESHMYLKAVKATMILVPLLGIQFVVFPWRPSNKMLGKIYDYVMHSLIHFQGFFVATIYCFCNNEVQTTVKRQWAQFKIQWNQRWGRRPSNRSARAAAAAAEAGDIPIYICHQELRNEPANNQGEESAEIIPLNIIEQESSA
T1 sequence (O60896 24-148 partner): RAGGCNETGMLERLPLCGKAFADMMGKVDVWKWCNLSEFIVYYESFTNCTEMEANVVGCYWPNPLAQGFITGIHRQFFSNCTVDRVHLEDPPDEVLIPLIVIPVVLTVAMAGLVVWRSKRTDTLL
Method in brief: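 EC50 values derive from 4PL curve fits of cAMP (AlphaScreen) in lysates of RAMP-naive COS7 cells stably carrying hCTR2 plus hRAMP3. Peptide dilution series were applied for 15 min at 37 °C in pH 7.4 Tyrode buffer containing 100 µM IBMX and 0.1% casein.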

SMILES | Fibrillation pH 4.0 (Ac) [1] | Fibrillation pH 7.0 (His) [1] | Fibrillation pH 7.0 (Phos.) [1] | EC50 [2] [pM] | Glucose AUC, t = 15-180 min.; mean ± S.E.M. (Sprague Dawley rats) [mmol·min/L]
CC[C@H](C)[C@@H](C(=O)N[C@@H](CC(C)C)C(=O)N[C@@H](CO)C(=O)N[C@@H](CO)C(=O)N[C@H](C(=O)N[C@@H](CCC(=O)O)C(=O)N[C@H](C(=O)NCC(=O)N[C@@H](CO)C(=O)N[C@@H](CC(N)=O)C(=O)N[C@H](C(=O)N1C[C@H](O)C[C@H]1C(N)=O)[C@@H](C)O)C(C)C)[C@@H](C)O)N(C)C(=O)[C@H](C)NC(=O)CN(C)C(=O)[C@H](Cc1ccccc1)NC(=O)[C@H](CO)NC(=O)[C@H](CO)NC(=O)[C@H](CCCNC(=N)N)NC(=O)[C@H](CCC(N)=O)NC(=O)[C@H](CC(C)C)NC(=O)[C@H](Cc1ccccc1)NC(=O)[C@H](Cc1c[nH]cn1)NC(=O)[C@H](C)NC(=O)[C@H](CC(C)C)NC(=O)[C@H](CCCNC(=N)N)NC(=O)[C@H](CCC(=O)O)NC(=O)[C@@H](NC(=O)[C@H](C)NC(=O)[C@@H]1CSSC[C@H](NC(=O)[C@H](CCCNC(=N)N)NC(=O)CC[C@H](NC(=O)CCCCCCCCCCCCCCCCCCC(=O)O)C(=O)O)C(=O)NCC(=O)N[C@@H]([C@@H](C)O)C(=O)N[C@@H](C)C(=O)N[C@@H]([C@@H](C)O)C(=O)N1)[C@@H](C)O [Compound 7, [19CD]-isoGlu-R-C( )-GTAT-C( )-ATERLAHFLQRSSF-Gly(Me)-A-Ile(Me)-LSSTEVGSNT-Hyp-NH2] ({C20 diacid-γGlu}-RCGTATCATERLAHFLQRSSF[Sar]A[NMeI]LSSTEVGSNT[Hyp]-NH2; disulfide 2-7) | FND | FND | FND |  | 122 ± 29
CC[C@H](C)[C@@H](C(=O)N[C@@H](CC(C)C)C(=O)N[C@@H](CO)C(=O)N[C@@H](CO)C(=O)N[C@H](C(=O)N[C@@H](CCC(=O)O)C(=O)N[C@H](C(=O)NCC(=O)N[C@@H](CO)C(=O)N[C@@H](CC(N)=O)C(=O)N[C@H](C(=O)N1C[C@H](O)C[C@H]1C(N)=O)[C@@H](C)O)C(C)C)[C@@H](C)O)N(C)C(=O)[C@H](C)NC(=O)CN(C)C(=O)[C@H](Cc1ccccc1)NC(=O)[C@H](CO)NC(=O)[C@H](CO)NC(=O)[C@H](CCCNC(=N)N)NC(=O)[C@H](CCC(N)=O)NC(=O)[C@H](CC(C)C)NC(=O)[C@H](Cc1ccccc1)NC(=O)[C@H](CC(=O)O)NC(=O)[C@H](C)NC(=O)[C@H](CC(C)C)NC(=O)[C@H](CCCNC(=N)N)NC(=O)[C@H](CCC(N)=O)NC(=O)[C@@H](NC(=O)[C@H](C)NC(=O)[C@@H]1CSSC[C@H](NC(=O)[C@H](CCCNC(=N)N)NC(=O)CC[C@H](NC(=O)CCCCCCCCCCCCCCCCCCC(=O)O)C(=O)O)C(=O)N[C@@H](CC(N)=O)C(=O)N[C@@H]([C@@H](C)O)C(=O)N[C@@H](C)C(=O)N[C@@H]([C@@H](C)O)C(=O)N1)[C@@H](C)O [Compound 49, [19CD]-isoGlu-R-C( )-NTAT-C( )-ATQRLADFLQRSSF-Gly(Me)-A-Ile(Me)-LSSTEVGSNT-Hyp-NH2] ({C20 diacid-γGlu}-RCNTATCATQRLADFLQRSSF[Sar]A[NMeI]LSSTEVGSNT[Hyp]-NH2; disulfide 2-7) | FD | FND | FND | 150 | 
CC[C@H](C)[C@@H](C(=O)N[C@@H](CC(C)C)C(=O)N[C@@H](CO)C(=O)N[C@@H](CO)C(=O)N[C@H](C(=O)N[C@@H](CCC(=O)O)C(=O)N[C@H](C(=O)NCC(=O)N[C@@H](CO)C(=O)N[C@@H](CC(N)=O)C(=O)N[C@H](C(=O)N1C[C@H](O)C[C@H]1C(N)=O)[C@@H](C)O)C(C)C)[C@@H](C)O)N(C)C(=O)[C@H](C)NC(=O)CN(C)C(=O)[C@H](Cc1ccccc1)NC(=O)[C@H](CO)NC(=O)[C@H](CO)NC(=O)[C@H](CCCNC(=N)N)NC(=O)[C@H](CCC(N)=O)NC(=O)[C@H](CC(C)C)NC(=O)[C@H](Cc1ccccc1)NC(=O)[C@H](CCCC(=O)O)NC(=O)[C@H](C)NC(=O)[C@H](CC(C)C)NC(=O)[C@H](CCCNC(=N)N)NC(=O)[C@H](CCC(=O)O)NC(=O)[C@@H](NC(=O)[C@H](C)NC(=O)[C@@H]1CSSC[C@H](NC(=O)[C@H](CCCNC(=N)N)NC(=O)CC[C@H](NC(=O)CCCCCCCCCCCCCCCCCCC(=O)O)C(=O)O)C(=O)NCC(=O)N[C@@H]([C@@H](C)O)C(=O)N[C@@H](C)C(=O)N[C@@H]([C@@H](C)O)C(=O)N1)[C@@H](C)O [Compound 55, [19CD]-isoGlu-R-C( )-GTAT-C( )-ATERLA-Aad-FLQRSSF-Gly(Me)-A-Ile(Me)-LSSTEVGSNT-Hyp-NH2] ({C20 diacid-γGlu}-RCGTATCATERLA[Aad]FLQRSSF[Sar]A[NMeI]LSSTEVGSNT[Hyp]-NH2; disulfide 2-7) | FND | FND | FND | 80 | 

The next lines start with results.

Fibrillation pH 4.0 (Ac) [1] | Fibrillation pH 7.0 (His) [1] | Fibrillation pH 7.0 (Phos.) [1] | EC50 [2] [pM] | SMILES | Glucose AUC, t = 15-180 min.; mean ± S.E.M. (Sprague Dawley rats) [mmol·min/L]
FND | FND | FND | 110 | CC[C@H](C)[C@@H](C(=O)N[C@@H](CC(C)C)C(=O)N[C@@H](CO)C(=O)N[C@@H](CO)C(=O)N[C@H](C(=O)N[C@@H](CCC(=O)O)C(=O)N[C@H](C(=O)NCC(=O)N[C@@H](CO)C(=O)N[C@@H](CC(N)=O)C(=O)N[C@H](C(=O)N1C[C@H](O)C[C@H]1C(N)=O)[C@@H](C)O)C(C)C)[C@@H](C)O)N(C)C(=O)[C@H](C)NC(=O)CN(C)C(=O)[C@H](Cc1ccccc1)NC(=O)[C@H](CO)NC(=O)[C@H](CO)NC(=O)[C@H](CCCNC(=N)N)NC(=O)[C@H](CCC(N)=O)NC(=O)[C@H](CC(C)C)NC(=O)[C@H](Cc1ccccc1)NC(=O)[C@H](Cc1c[nH]cn1)NC(=O)[C@H](C)NC(=O)[C@H](CC(C)C)NC(=O)[C@H](CCCNC(=N)N)NC(=O)[C@H](CCC(=O)O)NC(=O)[C@@H](NC(=O)[C@H](C)NC(=O)[C@@H]1CSSC[C@H](NC(=O)[C@H](CCCNC(=N)N)NC(=O)CC[C@H](NC(=O)CCCCCCCCCCCCCCCCCCC(=O)O)C(=O)O)C(=O)N[C@@H](CCC(N)=O)C(=O)N[C@@H]([C@@H](C)O)C(=O)N[C@@H](C)C(=O)N[C@@H]([C@@H](C)O)C(=O)N1)[C@@H](C)O [Compound 57, [19CD]-isoGlu-R-C( )-QTAT-C( )-ATERLAHFLQRSSF-Gly(Me)-A-Ile(Me)-LSSTEVGSNT-Hyp-NH2] ({C20 diacid-γGlu}-RCQTATCATERLAHFLQRSSF[Sar]A[NMeI]LSSTEVGSNT[Hyp]-NH2; disulfide 2-7) | 
FND | FD | FD | 180 | CC[C@H](C)[C@@H](C(=O)N[C@@H](CC(C)C)C(=O)N[C@@H](CO)C(=O)N[C@@H](CO)C(=O)N[C@H](C(=O)N[C@@H](CCC(=O)O)C(=O)N[C@H](C(=O)NCC(=O)N[C@@H](CO)C(=O)NCC(=O)N[C@H](C(=O)N1C[C@H](O)C[C@H]1C(N)=O)[C@@H](C)O)C(C)C)[C@@H](C)O)N(C)C(=O)[C@H](C)NC(=O)CN(C)C(=O)[C@H](Cc1ccccc1)NC(=O)[C@H](CO)NC(=O)[C@H](CO)NC(=O)[C@H](CCCNC(=N)N)NC(=O)[C@H](CCC(N)=O)NC(=O)[C@H](CC(C)C)NC(=O)[C@H](Cc1ccccc1)NC(=O)[C@H](Cc1c[nH]cn1)NC(=O)[C@H](C)NC(=O)[C@H](CC(C)C)NC(=O)[C@H](CCCNC(=N)N)NC(=O)[C@H](CCC(N)=O)NC(=O)[C@@H](NC(=O)[C@H](C)NC(=O)[C@@H]1CSSC[C@H](NC(=O)[C@H](CCCNC(=N)N)NC(=O)CC[C@H](NC(=O)CCCCCCCCCCCCCCCCCCC(=O)O)C(=O)O)C(=O)N[C@@H](CC(N)=O)C(=O)N[C@@H]([C@@H](C)O)C(=O)N[C@@H](C)C(=O)N[C@@H]([C@@H](C)O)C(=O)N1)[C@@H](C)O [Compound 71, [19CD]-isoGlu-R-C( )-NTAT-C( )-ATQRLAHFLQRSSF-Gly(Me)-A-Ile(Me)-LSSTEVGSGT-Hyp-NH2] ({C20 diacid-γGlu}-RCNTATCATQRLAHFLQRSSF[Sar]A[NMeI]LSSTEVGSGT[Hyp]-NH2; disulfide 2-7) | 
